# Measurements from US20260364081A1, “METHOD FOR PREVENTING OR TREATING ATTENTION DEFICIT HYPERACTIVITY DISORDER (ADHD) AND FOR PREPARING A COMPOUND OR SALT THEREOF” (ASTROGEN, INC., priority 2023, published 2026).
# Counter-ions that a name gives are not always drawn. Like-named read-outs stand apart in the source and are kept apart here.
# What was measured:
# 5HT2B receptor = conditions: background statement; cited from earlier work
# [1] = cited from earlier work
# [2] = test system: attention-deficit/hyperactivity disorder (ADHD); conditions: clinical trials, patients with ADHD, versus placebo; cited from earlier work
# dopamine = conditions: background statement; cited from earlier work
# 5-HT2C receptor = conditions: background statement; cited from earlier work
# norepinephrine receptor = norepinephrine receptor (Homo sapiens, UniProt P23975); conditions: read-out: norepinephrine reuptake inhibition IC50, HEK-293T cells stably expressing the norepinephrine receptor, 30 min drug incubation, 37 °C, 30 min kinetic fluorescence reading
# Method: The norepinephrine reuptake ability in a cell line expressing the norepinephrine receptor was confirmed using a kit (Neurotransmitter Transporter Uptake Assay Kit, Molecular Devices) composed of a fluorescent material that mimics amine neurotransmitters and a masking dye.
# First, HEK-293T cells stably expressing the norepinephrine receptor were seeded in a 96-well Black/Clear Bottom Plate to contain 6×10^4 cells in 100 μl of cell culture medium per well. After incubating for 20 hours in a 37 °C, 5% CO2 incubator to allow the cells to properly attach and stabilize on the plate, the cell culture medium was removed, and 100 μl of an HBSS+0.1% BSA with 20 mM HEPES aqueous solution in which a drug of a target concentration was dissolved was dispensed into each well. For the control group, 100 μl of a drug-free buffer solution (HBSS+0.1% BSA with 20 mM HEPES aqueous solution) was dispensed. The plate was incubated for 30 minutes in a 37 °C, 5% CO2 incubator to allow the drug to sufficiently react with the receptor.
# Thereafter, fluorescence was measured for a total of 30 minutes in Kinetic reading mode at Ex/Em=440 nm/520 nm using a fluorescence plate reader (SpectraMax®). The measured fluorescence intensity value was converted into a value of “reuptake inhibition rate (%)” using the following formula, and then a dose-response curve was plotted through 4-parameter (Log) logistic regression, and the IC50 value for each drug was calculated and compared (FIGS. 4 and 5).
# norepinephrine reuptake = conditions: background statement, cited from earlier work
# [3] = Thermal stability test (content by HPLC, visual discoloration); type: physicochemical; conditions: for Content at 0 weeks / remaining at 1344 h / Content after 8 weeks: HPLC; for Content at 0 weeks: start of storage at 40±2 °C and 75±5% RH; for remaining at 1344 h: solid, 75% rh, read-out: Content after 8 weeks; for remaining at 1344 h / Content after 8 weeks: 8 weeks at 40±2 °C and 75±5% RH, opaque glass vials; for Discoloration: visual, after 8 weeks at 40±2 °C and 75±5% RH; for Content after 8 weeks: 80640 min
# Method: 8 mg each of the viloxazine hydrochloride of Comparative Examples 1 and 2, and the novel salts of (S)-viloxazine of Examples 6 to 16 were placed into opaque glass vials and stored at 40±2 °C and 75±5% RH. After 8 weeks, each sample was taken out, its content was analyzed by high-performance liquid chromatography (HPLC), and the presence of discoloration was visually confirmed (Table 2).
# [4] = background statement; cited from earlier work
# CYP2D6 = conditions: background statement; cited from earlier work
# Sequence of norepinephrine receptor (P23975 whole entry): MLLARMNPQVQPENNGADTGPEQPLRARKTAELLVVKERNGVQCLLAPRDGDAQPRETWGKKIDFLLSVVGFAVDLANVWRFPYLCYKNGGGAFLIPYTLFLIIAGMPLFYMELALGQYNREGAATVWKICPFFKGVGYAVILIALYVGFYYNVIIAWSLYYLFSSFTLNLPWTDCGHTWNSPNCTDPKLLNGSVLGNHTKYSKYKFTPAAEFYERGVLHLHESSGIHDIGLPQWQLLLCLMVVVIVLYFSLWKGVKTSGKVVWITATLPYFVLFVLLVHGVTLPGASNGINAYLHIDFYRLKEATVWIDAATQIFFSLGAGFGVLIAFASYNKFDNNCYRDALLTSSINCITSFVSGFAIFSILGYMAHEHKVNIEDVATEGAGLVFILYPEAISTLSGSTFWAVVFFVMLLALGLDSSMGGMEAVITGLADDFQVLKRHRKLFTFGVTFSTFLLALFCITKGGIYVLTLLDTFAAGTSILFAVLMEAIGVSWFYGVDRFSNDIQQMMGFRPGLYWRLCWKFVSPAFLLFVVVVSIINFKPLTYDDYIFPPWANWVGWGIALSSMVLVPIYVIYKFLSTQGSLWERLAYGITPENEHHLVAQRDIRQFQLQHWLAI
IC50 (norepinephrine receptor),Content at 0 weeks [3],Content after 8 weeks [3],SMILES,other results
62.9 µM,99.5%,–,"CCOc1ccccc1OCC1CNCCO1 (racemic) [Comparative Example 1, (R,S)-viloxazine hydrochloride]","activity at 5HT2B receptor (5HT2B receptor): 5HT2B receptor antagonist; suicidal ideation or suicide risk ([1]; during initial treatment or dosage adjustment): increased risk of suicidal ideation or suicide; risk in patients with bipolar disorder ([1]; patients with bipolar disorder): risk of worsening symptoms in patients with bipolar disorder; most common side effects ([1]; patients): drowsiness, reduced appetite, fatigue, nausea, and insomnia; heart rate and blood pressure ([1]; some of the patients administered viloxazine HCl): increase in heart rate and blood pressure; risk of drug abuse, dependence, or withdrawal symptoms ([1]; upon treatment discontinuation): low risk of drug abuse, dependence, or withdrawal symptoms; clinical efficacy in ADHD symptoms [2]: showed improved symptoms compared to patients who took a placebo; effect on dopamine (dopamine): low effect on dopamine; activity at 5-HT2C receptor (5-HT2C receptor): 5-HT2C receptor agonist; norepinephrine reuptake inhibition (in words) (norepinephrine reuptake; listed as Racemic viloxazine hydrochloride): selective inhibition of norepinephrine reuptake; norepinephrine reuptake inhibition (in words) (norepinephrine reuptake; hydrochloride): selectively inhibits norepinephrine reuptake; remaining at 1344 h [3]: 98.7%; Discoloration ([3]; hydrochloride): discolored to an off-white color; route of excretion of metabolites [4]: majority of its metabolites are excreted through urine; metabolizing enzyme (CYP2D6): metabolized through the CYP2D6 enzyme"
108 µM,99.2%,–,"CCOc1ccccc1OC[C@H]1CNCCO1 [Comparative Example 2, (R)-viloxazine hydrochloride, reference compound]",remaining at 1344 h [3]: 98.1%; Discoloration ([3]; hydrochloride): discolored to an off-white color
–,–,–,"CCOc1ccccc1OC[C@@H]1CNCCO1 [Example 6, (S)-viloxazine hydrochloride]",IC50 (norepinephrine receptor; hydrochloride): 22.5 µM; Content at 0 weeks ([3]; hydrochloride): 99.5%; remaining at 1344 h [3]: 99.2%
29.3 µM,99.3%,98.6%,"CCOc1ccccc1OC[C@@H]1CNCCO1 [Example 7, (S)-viloxazine sulfate]",–
–,–,–,"CCOc1ccccc1OC[C@@H]1CNCCO1 [Example 8, (S)-viloxazine hydrobromide]",IC50 (norepinephrine receptor; hydrobromide): 38.6 µM; Content after 8 weeks ([3]; hydrobromide): 99.0%; Content at 0 weeks ([3]; hydrobromide): 99.2%
42 µM,98.2%,97.7%,"CCOc1ccccc1OC[C@@H]1CNCCO1 [Example 9, (S)-viloxazine nitrate]",–
24.3 µM,99.6%,99.3%,"CCOc1ccccc1OC[C@@H]1CNCCO1 [Example 10, (S)-viloxazine acetate]",–
33.6 µM,99.0%,98.5%,"CCOc1ccccc1OC[C@@H]1CNCCO1 [Example 11, (S)-viloxazine trifluoroacetate]",–
34.3 µM,99.1%,98.6%,"CCOc1ccccc1OC[C@@H]1CNCCO1 [Example 12, (S)-viloxazine oxalate]",–
36.1 µM,99.0%,98.5%,"CCOc1ccccc1OC[C@@H]1CNCCO1 [Example 13, (S)-viloxazine fumarate]",–
28.8 µM,99.1%,98.5%,"CCOc1ccccc1OC[C@@H]1CNCCO1 [Example 14, (S)-viloxazine maleate]",–
40.1 µM,99.0%,98.6%,"CCOc1ccccc1OC[C@@H]1CNCCO1 [Example 15, (S)-viloxazine citrate]",–
–,98.0 → 98.0%,98.0 → 98.0%,"CCOc1ccccc1OC[C@@H]1CNCCO1 [Example 16, (S)-viloxazine methanesulfonate]",–
